In PubChem BioAssay (NCI):
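How tested: cells in 96-well plates exposed to compound for 48 hours at five concentrations. GI50 is the concentration that inhibits growth by half. The concentration for full growth arrest is given as TGI.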

Legend:
Test in all cases: NCI tumour cell line growth inhibition, 48 h
DLD-1 colon = tested on: DLD-1 colon
LXFL 529 NSCLC = tested on: LXFL 529 NSCLC
M19-MEL melanoma = tested on: M19-MEL melanoma
XF 498 CNS = tested on: XF 498 CNS
PC-3 prostate = tested on: PC-3 prostate
HOP-18 NSCLC = tested on: HOP-18 NSCLC
MDA-N = tested on: MDA-N
RXF-631 renal = tested on: RXF-631 renal

SMILES | TGI (DLD-1 colon) [µM] | TGI (LXFL 529 NSCLC) [µM] | TGI (M19-MEL melanoma) [µM] | GI50 (PC-3 prostate) [µM] | TGI (PC-3 prostate) [µM] | TGI (HOP-18 NSCLC) [µM] | also measured
O=C1CCCCCCCCCCC1CN1CCCCC1 (centres undefined) | > 100 | > 100 | > 100 |  |  |  | TGI (XF 498 CNS): > 100 µM
N#CCN/C=C\C(=O)c1ccc(Cl)cc1 |  |  |  | 29.5 | > 100 |  | 
COc1ccc(/C=N\Nc2ccc([N+](=O)[O-])cn2)cc1OC |  |  |  | > 100 | > 100 |  | 
CC(C)(C)C1CCC2c3c([nH]c4ccccc34)C3C(=O)N(c4ccccc4)C(=O)C3C2C1 (centres undefined) | > 100 | 32.3 | 23.7 |  |  | 9.73 | TGI (XF 498 CNS): 3 µM
C=C(Nc1ccc([N+](=O)[O-])cc1[N+](=O)[O-])c1c/c(=N\NC(N)=S)c2ccccc2o1 |  |  |  |  | > 100 |  | TGI (MDA-N): > 100 µM
CN/N=C(\C)C(CN(C)C)C(c1ccccc1)c1c(O)c2ccccc2oc1=O (centres undefined) |  |  |  |  | > 100 |  | TGI (MDA-N): > 100 µM
CC(C)(C)C(=O)OC12/C(=N/O)CCCCCC1c1ccccc12 (centres undefined) | 34.6 | 30.3 | 30.2 |  |  | 34 | 
CC(C)C1=CC23CCC4C(C)(C(=O)O)CCCC4(C)C2CC1C1C(=O)N(c2ccccc2)C(=O)C13 (centres undefined) | > 100 | > 100 | > 100 |  |  | > 100 | TGI (XF 498 CNS): > 100 µM
CCN(CC)CCCC(C)N=C(C1=C(C(=NC(C)CCCN(CC)CC)c2cccc(OC)c2)C(=O)NC1=O)c1cccc(OC)c1 (centres undefined) |  |  |  | 1.47 | 5.12 |  | 
CCOC(=O)C(C)(C)Oc1ccc(/C=C/C(=O)c2ccc(Cl)cc2)cc1 | 27.9 | 29.2 | 38.2 |  |  |  | TGI (RXF-631 renal): 38.5 µM; TGI (XF 498 CNS): 39.1 µM
CCCC(CCC)C(=O)OCC1(CO)C/C(=C\c2ccc(F)cc2)C(=O)O1 (centres undefined) |  |  |  | 10.4 | 25 |  | 
Cc1c(C(=O)/C=C/c2ccc(N(C)C)cc2)c(=O)n(-c2ccccc2)n1C |  | > 100 | > 100 |  |  |  | TGI (XF 498 CNS): > 100 µM
CO[C@H](C(=O)[C@@H](O)[C@@H](C)O)[C@@H]1Cc2cc3cc(OC4CC(OC5CC(O)C(O)C(C)O5)C(O)C(C)O4)c(C)c(O)c3c(O)c2C(=O)[C@H]1OC1CC(OC2CC(OC3CC(C)(O)C(O)C(C)O3)C(O)C(C)O2)C(O)C(C)O1 (some centres undefined) |  |  |  |  |  |  | GI50 (HOP-18 NSCLC): 0.000558 µM
CCOC(=N)CC(=O)c1ccccc1 | > 100 | > 100 | > 100 |  |  | > 100 | TGI (XF 498 CNS): > 100 µM
CC/C(CC(=O)CCC(=O)Nc1ccccc1[N+](=O)[O-])=N/NC(=O)C[n+]1ccccc1 |  | > 100 | > 100 |  |  | > 100 | TGI (RXF-631 renal): > 100 µM
O=C(O)C(Cl)(c1ccccc1)c1ccccc1 |  |  |  |  | > 100 |  | TGI (MDA-N): > 100 µM
O=[N+]([O-])CCc1cccc([N+](=O)[O-])c1 | > 100 | > 100 | > 100 |  |  | > 100 | 
CCn1c(-c2cc3ccccc3cc2O)nn(C(=O)c2c(Cl)cccc2Cl)c1=S |  |  |  | > 50 | > 50 |  | 
Cc1cc(CC(C)CC(C)(C)C)n(O)c(=O)c1 (centres undefined) (tested in a mixture with another compound) |  |  |  | 0.601 | 40 |  | 
Cc1cc(Cl)ccc1NC(=O)C(=O)C(C(=O)c1ccc2ccccc2c1)C1OC(=O)c2ccccc21 (centres undefined) | 30.4 | 19 | 29.7 |  |  | 18.1 | TGI (RXF-631 renal): 31.2 µM

SMILES | TGI (DLD-1 colon) [µM] | TGI (LXFL 529 NSCLC) [µM] | TGI (M19-MEL melanoma) [µM] | GI50 (PC-3 prostate) [µM] | TGI (PC-3 prostate) [µM] | TGI (HOP-18 NSCLC) [µM] | also measured
COc1cccc(C2c3cc4c(cc3OC(N3CCCC3)C2C)OCO4)c1O (centres undefined) |  |  |  |  | 73.5 |  | TGI (MDA-N): 4.38 µM
CSc1n[n+]2c(s1)SCCC2 | > 100 | > 100 | > 100 |  |  | > 100 | TGI (RXF-631 renal): > 100 µM; TGI (XF 498 CNS): > 100 µM
COc1cc(-c2nc(-c3nc4ccccc4[nH]3)cc3c2[nH]c2ccccc23)cc(OC)c1OC |  |  |  | 2.64 | > 100 |  | 
CN(C)c1nc(=Nc2cccc(Cl)c2)ss1 | 24.8 | 21.7 | 32.6 |  |  | > 100 | TGI (RXF-631 renal): 26.8 µM; TGI (XF 498 CNS): 32.4 µM
O=C(/C=C/c1ccccc1)n1c(-c2ccc(Cl)cc2)nc2ccccc21 |  |  |  | 1.91 | 6.73 |  | 
CCCCCCCCCCCCCCCCCC(=O)OCC(COC(=O)CCCN)OC(=O)CCCN (centres undefined) |  |  |  |  | 35.5 |  | TGI (MDA-N): 39.4 µM
FC(F)(F)C1(Br)C(c2ccccc2)=C1c1ccccc1 | 43 | 28.1 | 30 |  |  | 31.1 | TGI (RXF-631 renal): > 100 µM; TGI (XF 498 CNS): 30.7 µM
COC(=O)Cc1ccc(Oc2cnc3cc(F)c(F)cc3n2)cc1 |  |  |  | 63.7 | > 100 |  | 
COc1cccc(/C=C/C(=O)c2ccc(Cl)cc2Cl)c1 |  |  |  | 8.92 | 20.9 |  | 
CC(C)(C)[Si](C)(C)OC1[C@@H](O[Si](C)(C)C(C)(C)C)[C@@H](CNC(=O)NC(=O)CCl)O[C@H]1n1cnc2c(NC(=O)Nc3ccccc3)ncnc21 (some centres undefined) |  |  |  | 0.381 | 1.19 |  | 
C=C[C@@]1(O)CCCC2=C(C(=O)OCC)CC[C@]21C | > 100 | > 100 | > 100 |  |  | > 100 | 
COc1cccc(NC(=O)c2sc3nc4c(cc3c2N)C(=O)CCC4)c1 |  |  |  | 0.11 | > 100 |  | 
O=C(Cc1ccccc1)Nn1c(-c2ccccc2)nc2ccccc2c1=O |  |  |  |  | > 100 |  | TGI (MDA-N): > 100 µM
Cc1nc(N2CCC3(CC2)CO[C@@H](C)[C@H]3N)c(CO)nc1Sc1ccnc(N)c1Cl |  |  |  | > 100 | > 100 |  | 
COc1ccc(C2SCC(=O)N2NC(=O)c2ccc(NC(C)=O)cc2)cc1 (centres undefined) |  |  |  |  |  |  | TGI (MDA-N): > 100 µM
O=C(CNc1ccccc1[N+](=O)[O-])Nn1c(-c2ccccc2)nc2ccccc2c1=O |  |  |  |  | 61.5 |  | TGI (MDA-N): 57.9 µM
Cc1cc(C)c(Cn2cnc3c(Cl)ncnc32)c(C)c1CCl |  |  |  | > 100 | > 100 |  | 
O=Cc1ccc(-c2ccc(-c3nc4ccccc4o3)cc2)o1 |  |  |  | 30.3 | > 100 |  | 
Cc1cn2c(/C=N/N=C(N)N)c(-c3cccs3)nc2s1 |  |  |  | 2.99 | 12.4 |  | 
O=C1C(Cl)C(c2ccccc2O)N1n1cnc2ccccc2c1=O (centres undefined) | > 100 | > 100 | > 100 |  |  | > 100 | TGI (XF 498 CNS): 17.9 µM
